The values that follow come from US7304093B2, “Ketone compounds and compositions for cholesterol management and related uses” (Esperion Therapeutics, Inc., priority 2000, dated 2007).

Like-named read-outs stand apart in the source and are kept apart here.

The melting point is the temperature, or range, at which the solid turns liquid. By IC50 is commonly meant the point on the concentration scale where inhibition reaches its midpoint.

For data set [1], the system named is female obese Zucker rats. The experiment in a line: Serum lipid and glycemic control variables in chow-fed obese female Zucker rats, daily oral gavage for two weeks. The data set is classed as in vivo, rat. The following applies: Rattus norvegicus, 100 mg/kg daily oral, 100% = 2-fold increase, Table 8. On the procedure: Ten- to twelve-week old (400-500 grams) female Zucker fatty rats Cr1: (Zuc)-faBR were obtained from Charles River Laboratories. Animals were acclimated to the laboratory environment for seven days. During the acclimation and study period, animals were housed by group in shoebox polycarbonate cages on Cellu-Dri bedding. The temperature and humidity in the animals' quarters (68-78° F.; 30-75% RH) were monitored and the airflow in the room was sufficient to provide several exchanges per hour with 100% fresh filtered air. An automatic timing device provided an alternating 12-hour cycle of light and dark. Rats received pelleted Purina Laboratory Rodent Chow® (5001) prior to and during the drug intervention period except for a 6-hour phase prior to blood sampling. Fresh water was supplied ad libitum via an automatic watering system. Compounds were dissolved, suspended by mixing in a dosing vehicle consisting of 1.5% carboxymethylcellulose/0.2% Tween 20 or 20% ethanol and 80% polyethylene glycol-200 [v/v]. Dose volume of vehicle or vehicle plus each compound was set at 0.25% of body weight in order to deliver the appropriate dose. Doses were administered daily by oral gavage, approximately between 8-10 AM. Regarding blood sampling, animals were fasted for 6 hours prior to all blood collections. Prior to and after 7 days of dosing, a 1.0- to 2.0-mL sample of blood was collected by administering O2/CO2 anesthesia and bleeding from the orbital venous plexus. Following 14 days of dosing, blood was collected by cardiac puncture after euthanasia with CO2. All blood samples were processed for separation of serum and stored at −80° C. until analysis. Commercially available kits were used to determine serum triglycerides (Roche Diagnostic Corporation, Kit No. 148899 or Boehringer Mannheim, Kit No. 1488872), total cholesterol (Roche Diagnostic Corporation, Kit No. 450061), non-esterified fatty acids (Wako Chemicals, Kit No. 994-75409) and β-hydroxybutyrate (Wako Chemicals, Kit No. 417-73501 or Sigma Kit. No. 310-0) on a Hitachi 912 Automatic Analyzer (Roche Diagnostic Corporation). In some instances, an in-house cholesterol reagent was used to determine total serum cholesterol levels. Serum lipoprotein cholesterol levels were determined by lipoprotein profile analysis. Lipoprotein profiles were analyzed using gel-filtration chromatography on a Superose 6HR (1×30 cm) column equipped with on-line detection of total cholesterol as described by Kieft et al (Kieft, K. A.; Bocan, T. M.; Krause, B. R. Rapid on-line determination of cholesterol distribution among plasma lipoproteins after high-performance gel filtration chromatography. J. Lipid Res. 1991, 32, 859-866.). The total cholesterol content of each lipoprotein was calculated by multiplying the independent values determined for serum total cholesterol by the percent area of each lipoprotein in the profile. The percent body weight gain and the ratio of liver to body weight is also determined. Selected data are shown as absolute values or as a percent change of the pretreatment values in Tables 8 and 9.
Select compounds (214c, 210c, and 210g) were further evalutated in the Zucker rat by performing a full dose response and measuring additional scrum variables including markers for diabetes (Tables 10-12).

Data set [2] relates to primary rat hepatocytes. Put plainly: Inhibition of lipid synthesis ([1-14C]-acetate incorporation) in primary cultures of rat hepatocytes. Type of data set: cell-based. Conditions: Hepatocyte, 4 h incubation with [1-14C]-acetate, Table 6. On the procedure: Compounds were tested for inhibition of lipid synthesis in primary cultures of rat hepatocytes. Male Sprague-Dawley rats were anesthetized with intraperitoneal injection of sodium pentobarbital (80 mg/kg). Rat hepatocytes were isolated essentially as described by the method of Seglen (Seglen, P. O. Hepatocyte suspensions and cultures as tools in experimental carcinogenesis. J. Toxicol. Environ. Health 1979, 5, 551-560). Hepatocytes were suspended in Dulbecco's Modified Eagles Medium containing 25 mM D-glucose, 14 mM HEPES, 5 mM L-glutamine, 5 mM leucine, 5 mM alanine, 10 mM lactate, 1 mM pyruvate, 0.2% bovine serum albumin, 17.4 mM non-essential amino acids, 20% fetal bovine serum, […] and 20 μg/mL gentamycin) and plated at a density of 1.5×10^5 cells/cm^2 on collagen-coated 96-well plates. Four hours after plating, media was replaced with the same media without serum. Cells were grown overnight to allow formation of monolayer cultures. Lipid synthesis incubation conditions were initially assessed to ensure the linearity of [1-^14C]-acetate incorporation into hepatocyte lipids for up to 4 hours. Hepatocyte lipid synthesis inhibitory activity was assessed during incubations in the presence of 0.25 μCi [1-^14C]-acetate/well (final radiospecific activity in assay is 1 Ci/mol) and 0, 1, 3, 10, 30, 100 or 300 μM of compounds for 4 hours. At the end of the 4-hour incubation period, medium was discarded and cells were washed twice with ice-cold phosphate buffered saline and stored frozen prior to analysis. To determine total lipid synthesis, 170 μl of MicroScint-E® and 50 μl water was added to each well to extract and partition the lipid soluble products to the upper organic phase containing the scintillant. Lipid radioactivity was assessed by scintillation spectroscopy in a Packard TopCount NXT.

Setting [3] is: 168 h, 1 wk, read-out: HDL-Cholesterol, Percent Change from Pre-Treatment.
Setting [4] is: 168 h, 1 wk, read-out: NonHDL-Cholesterol, Percent Change from Pre-Treatment.
Where [5] appears, read: 168 h, 1 wk, read-out: TG, Percent Change from Pre-Treatment.
[6] abbreviates: 336 h, 2 wk, read-out: HDL-Cholesterol, Percent Change from Pre-Treatment.
[7] abbreviates: 336 h, 2 wk, read-out: NonHDL-Cholesterol, Percent Change from Pre-Treatment.
Where [8] appears, read: 336 h, 2 wk, read-out: TG, Percent Change from Pre-Treatment.

Compound `O=C(CCCCCC1(C(=O)O)CCCC1)CCCCCC1(C(=O)O)CCCC1` [Compound 107m, 1-[11-(1-Carboxycyclopentyl)-6-oxoundecyl]-1-cyclopentanecarboxylic acid] displayed a melting point of 78 to 85 °C. In addition, in data set [1] (setting [3]), the change in vivo at 100 mg/kg was determined as 12%. Besides, in data set [1] (setting [4]), the change in vivo at 100 mg/kg was -54%. Also, the change in vivo at 100 mg/kg in data set [1] (setting [5]) is -63%. In data set [1] (setting [6]), the change in vivo at 100 mg/kg amounted to 27%. For the same compound, the change in vivo at 100 mg/kg in data set [1] (setting [7]) was -32%. In addition, in data set [1] (setting [8]), the change in vivo at 100 mg/kg was -48%. The compound further yielded an IC50 in data set [2] of 2000 nM.
Turning to `CC(C)(CCCCCC(=O)CCCCCC1(C(=O)O)CC1)C(=O)O` [Compound 107k, 13-(1-Carboxycyclopropyl)-2,2-dimethyl-8-oxotridecanoic acid], the melting point lay within 65 to 66 °C. The change in vivo at 100 mg/kg in data set [1] (setting [3]) came out at 43%. Moreover, in data set [1] (setting [4]), the change in vivo at 100 mg/kg was -90%. In data set [1] (setting [5]), the change in vivo at 100 mg/kg was -93%. In data set [1] (setting [6]), the change in vivo at 100 mg/kg was found to be 84%. Besides, the change in vivo at 100 mg/kg in data set [1] (setting [7]) is -99%. Also, in data set [1] (setting [8]), the change in vivo at 100 mg/kg is -98%. The compound further registered an IC50 in data set [2] of 1000 nM.
Compound `O=C(CCCCC1(C(=O)O)CC1)CCCCC1(C(=O)O)CC1` [Compound 107d, 1-[9-(1-Carboxycyclopropyl)-5-oxononyl]-1-cyclopropanecarboxylic acid] returned a melting point of 132 to 134 °C. Further, the change in vivo at 100 mg/kg in data set [1] (setting [3]) turned out to be 180%. In addition, the change in vivo at 100 mg/kg in data set [1] (setting [4]) is 22%. The change in vivo at 100 mg/kg in data set [1] (setting [5]) is -51%. The change in vivo at 100 mg/kg in data set [1] (setting [6]) worked out at 260%. Also, the change in vivo at 100 mg/kg in data set [1] (setting [7]) was 63%. In data set [1] (setting [8]), the change in vivo at 100 mg/kg is -28%. In data set [2], this compound showed an IC50 of 300 nM.
In turn, `CC(C)(CCCCC(=O)CCCCC1(C(=O)O)CCC1)C(=O)O` [Compound 107e, 11-(1-Carboxycyclobutyl)-2,2-dimethyl-7-oxoundecanoic acid] returned a melting point of 53 to 55 °C. Also, the change in vivo at 100 mg/kg in data set [1] (setting [3]) was 30%. In data set [1] (setting [4]), the change in vivo at 100 mg/kg amounted to 4%. Also, the change in vivo at 100 mg/kg in data set [1] (setting [5]) was -54%. Moreover, in data set [1] (setting [6]), the change in vivo at 100 mg/kg came to 60%. In addition, the change in vivo at 100 mg/kg in data set [1] (setting [7]) came to 28%. Also, the change in vivo at 100 mg/kg in data set [1] (setting [8]) is -51%. This compound came in with an IC50 in data set [2] of 6000 nM.
Consider `O=C(CCCCC1(C(=O)O)CCCC1)CCCCC1(C(=O)O)CCCC1` [Compound 107g, 1-[9-(1-Carboxycyclopentyl)-5-oxononyl]-1-cyclopentanecarboxylic acid], for which the melting point was 99 to 103 °C. Further, the change in vivo at 100 mg/kg in data set [1] (setting [3]) is 36%. In addition, the change in vivo at 100 mg/kg in data set [1] (setting [4]) is -68%. Further, in data set [1] (setting [5]), the change in vivo at 100 mg/kg was -67%. Also, in data set [1] (setting [6]), the change in vivo at 100 mg/kg was 40%. In addition, the change in vivo at 100 mg/kg in data set [1] (setting [7]) is -67%. Also, in data set [1] (setting [8]), the change in vivo at 100 mg/kg was -70%. The compound also showed a 50% inhibitory concentration (IC50) in data set [2] of 113000 nM.
With `O=C(CCCCCC1(C(=O)O)CC1)CCCCCC1(C(=O)O)CC1` [Compound 107l, 1-[11-(1-Carboxycyclopropyl)-6-oxoundecyl]-1-cyclopropanecarboxylic acid], the melting point fell in the range of 122 to 123 °C. Moreover, in data set [1] (setting [3]), the change in vivo at 100 mg/kg amounted to 136%. Moreover, the change in vivo at 100 mg/kg in data set [1] (setting [4]) is -92%. Further, the change in vivo at 100 mg/kg in data set [1] (setting [5]) was -95%. Further, in data set [1] (setting [6]), the change in vivo at 100 mg/kg turned out to be 171%. Moreover, the change in vivo at 100 mg/kg in data set [1] (setting [7]) is -83%. Further, the change in vivo at 100 mg/kg in data set [1] (setting [8]) was -94%. The compound also displayed a half-inhibitory concentration (IC50) in data set [2] of 500 nM.
